One data set relates to activated microglia. Kind of data set: FAM-CVG colocalization with activated microglia in glioma. The format is in vivo, mouse. The note with it: FAM-labelled, i.v., 1 h; WT GBM, glioma edge and core. As to the method: WT GBM glioma-bearing mice were injected iv with FAM-labelled CVG peptide for 1 hour circulation. Mice were perfused and tissues of interest were snap-frozen in the vapor of liquid nitrogen. Immunofluorescent staining was carried out with the following antibodies: FAM, CD68, CD11b and CD206.

The test system of data set [1] is mouse brain. Kind of data set: In vivo phage display with CX4CYX library. How it is done:
In vivo phage display with CX4CYX library was performed in three selection rounds. Phage library was injected intravenously to Balb/c mice and allowed to circulate for one hour. After circulation, the animals were anesthetized and perfused intracardially with acid and detergent buffers. Brain and control organs were collected and homogenized in 1% NP40-LB. Bound phages were rescued by amplification in E. coli and their genomic DNA was sequenced by Ion Torrent next generation DNA sequencing system.
A novel phage library CX4CYX was constructed based on the alanine-leucine screen to find new brain homing peptides). This knowledge directed us to construct a novel phage library CX4CYX (X—any amino acid), where Cys1, Cys6 and Tyr7 remained in their intact positions, and the four amino acid variable-domain laid between the cysteines, and one amino acid variability after Tyr7. Three rounds of phage bio-panning was performed to allow enrichment of peptides in the brain. Again acid and detergent buffers were used for perfusion to remove non-specifically bound phages from the brain after systemic administration of phage library (round 1) and recovered brain phage pools (round 2 and 3). HTS reads from round 1 to round 3 indicated decent enrichment of in-frame peptides in the brain (Table 6).

Data set [2] deals with mouse brain. Description: In vivo play-off screen with 10 published CNS homing peptide-phages. The note with it: phage pool i.v., 1 h; acid and detergent perfusion. How it is done:
Play-off screen was carried out with 10 previously published BBB penetrating/CNS homing peptide-phages. […] Oligonucleotides were annealed and ligated into the phage genome using T7Select 415-1 cloning kit (Novagen) and the T7Select System Manual. Each peptide-phage was separately amplified in liquid bacterial culture, precipitated with PEG, recovered in PBS and titered. Phages were mixed in equimolar ratios and purified with CsCl-ultracentrifugation and dialysis. Titer of the play-off pool was determined and mice were intravenously injected with 1×10^10 pfu of phage pool. After one hour of circulation time, mice were perfused with acid buffer (500 mM NaCl, 0.1 M glycine, 1% BSA, pH2.5) and detergent buffer (1% NP40 in PBS), collected organs were homogenized and phage pools amplified for high-throughput sequencing.
Novel BBB penetrating and CNS homing peptide was identified in a step by step process including a phage play-off screens, alanine scanning mutagenesis and phage display with unique library. The first selection step included a phage play-off screen with ten previously published CNS homing peptides (Table 5). To ensure collecting BBB penetrating and CNS homing peptides, phage play-off pool was intravenously (iv) injected into the mice and perfusion was done with acid and detergent buffers to remove unbound phages and brake the endothelial layer of blood vessels. […]

The subject of data set [3] is mouse brain. Kind of data set: In vivo play-off of alanine-scan peptide-phages. The note with it: 5×10^9 pfu phage mix i.v., 1 h, HTS. As to the method:
To determine which amino acid positions are important for brain homing of Cerepep, in vivo play-off method was used. A pool of T7 peptide-phages was created, where each amino acid of Cerepep sequence was changed one-by-by to alanine and alanines were changed to leucines. These clones, original Cerepep peptide-phage clone and control insertless phage were mixed in equimolar ratio and 5×10^9 pfu of phage mix was injected i.v. into male Balb/C mice (n=2). Following 1 h circulation the animals were anesthetized and perfused with PBS. The prevalence of phage clones in the brain was determined by high throughput sequencing.
To determine which amino acid positions are important for brain homing of SERVISRAKLAAAL (SEQ ID NO:9), a pool of peptide-phage clones was compiled, where every amino acid position was one-by-one changed to alanine (alanines were changed to leucines). […] The phage mix was injected into mice and following a 1 h circulation the amount of different phage clones in the brain was determined using HTS. […]
Based on studies involving in vivo play-off analyses, it was determined that Arginines and isoleucine are crucial for the brain homing of Cerepep (CP) peptide. Every position of CP peptide was one-by one mutated to alanine (alanines were changed to leucines) and the brain homing of each mutated peptide-phage was assessed using in vivo play-off method (FIG. 7C). […]

Ends that are not written are not given here.

Take “FAM-labelled CVG peptide: 5(6)-carboxyfluorescein-labelled CVGTNCY peptide (not fully specified (N-terminus); cysteine pairing not given here; also: 5(6)-carboxyfluorescein label, position not given here)”: the “colocalization with activated microglia markers CD68, CD11b and CD206” value in the data set on activated microglia was “colocalization with activated microglia markers CD68, CD11b and CD206 cells”.
In turn, CAGALCY [reference compound] returned an R1 reads with mouse brain [1] (round 1) of 3 reads. This substance gave an R3 reads with mouse brain [1] (round 3) of 880 reads. In the data set on mouse brain [1] (round 3 / round 1), the “R3 > R1 (ratio of sequencing reads between round 3 and round 1)” value is on record as 293. For the same substance, the “representation in the brain (HTS reads)” value in the data set on mouse brain [2] is recorded as “highest representation in the brain”.
RRVISRAKLAAAL: in the data set with mouse brain [3], the “brain homing / brain accumulation of mutated peptide-phage” value is listed as “appear to be necessary for brain homing”.

The values are drawn from patent US20260347399A1, “BRAIN PENETRATING PEPTIDES AND METHODS OF USE” (priority 2022, published 2026).
